# Data reported in patent US11400082B2, “Methods of treating elevated plasma cholesterol” (Montréal Heart Institute, priority 2017, dated 2022).
# “And” between values parts separate entries of the source, which are not always exact repeats. Equal entries are not always repeated. Where two headings read alike, the source gives them in different places.
# What was measured:
# [1] = tested on: LDLR protein; format: cell-based, human
# Description: (§1) For sterol-regulated conditions, HepG2 cells were incubated in 5% LPDS, 50 μM mevastatin, and 50 μM mevalonolactone in the absence (-sterols) or presence of 1 μg/ml 25-hydroxycholesterol and 10 μg/ml cholesterol (+sterols). For inhibitor treatments HepG2 cells were treated with DMSO or 10 μM compounds 2 in combination with U0126 (25 μM, catalog no. 9903, Cell Signaling Technology), Cycloheximide (CHX; 20 μg/ml, catalog no. C7698, Sigma-Aldrich), PD153035 (20 μM, catalog no. 14879, Cayman Chemical), bisindolylmaleimide I (BIM; 10 μM, catalog no. 13298, Cayman Chemical), H-89 (10 μM, catalog no. 10010556, Cayman Chemical), Dorsomorphin (5 μM, catalog no. 11967, Cayman Chemical) or 5-Azacytidine (10 μM, catalog no. A2385, Sigma-Aldrich).
# Treated cells from Example 28 were washed three times in phosphate-buffered saline (PBS) and lysed in radioimmune precipitation assay buffer (50 mM Tris/HCl, pH 8.0, 1% (v/v) Nonidet P-40, 0.5% sodium deoxycholate, 150 mM NaCl, and 0.1% (v/v) SDS) supplemented with a complete protease inhibitor mixture (catalog no. 11 697 498 001, Roche Applied Science). […] Unsaturated films were numerized using the high resolution CanoScan 9000F scanner and corresponding bands were quantified using the ImageJ software (NIH). Relative quantification of LDLR protein levels were normalized to that of actin and compared to vehicle (DMSO) herein determined as 1.
# [2] = tested on: LDLR protein; test: Western blot analysis, relative quantification of LDLR protein levels; format: cell-based, human; conditions: overnight, hepatoma cells (HepG2, FIG. 13), normalized to actin, vehicle (DMSO) = 1
# Description: as §1
# Treated cells from Example 28 were washed three times in phosphate-buffered saline (PBS) and lysed in radioimmune precipitation assay buffer (50 mM Tris/HCl, pH 8.0, 1% (v/v) Nonidet P-40, 0.5% sodium deoxycholate, 150 mM NaCl, and 0.1% (v/v) SDS) supplemented with a complete protease inhibitor mixture (catalog no. 11 697 498 001, Roche Applied Science). Proteins were separated by 8% SDS polyacrylamide gel electrophoresis, blotted on nitrocellulose membranes (Bio-Rad), and blocked for 1 h in Tris-buffered saline-Tween 20 (TBS-T; 50 mM Tris-HCl, pH 7.5, 150 mM NaCl, 0.1% Tween 20) containing 5% nonfat dry milk. Membranes were then incubated overnight in TBS-T supplemented with 1% nonfat milk and the indicated antibodies; goat anti-human LDLR (1:1000; catalog no. AF2148, R&D Systems), rabbit anti-actin (1:5000; catalog no. A2066, Sigma-Aldrich). Appropriate HRP-conjugated secondary antibodies (1:10,000; GE healthcare) were used for detection using the Western Lightning Ultra chemiluminescence kit (catalog no. NEI112001EA, PerkinElmer Life Sciences) and BioFlex EC Films (catalog no. CLEC810, InterScience). Unsaturated films were numerized using the high resolution CanoScan 9000F scanner and corresponding bands were quantified using the ImageJ software (NIH). Relative quantification of LDLR protein levels were normalized to that of actin and compared to vehicle (DMSO) herein determined as 1.
# [3] = Cell viability assay (MTT); format: cell-based; conditions: human; overnight incubation, viability relative to DMSO
# Description: Following incubation, media was replaced and cells incubated for 4 h with 100 μL of phenol red-free DMEM containing 0.5 mg/mL of MTT (3-[4,5-dimethylthiazol-2-yl]-2,5-diphenyltetrazolium bromide; thiazolyl blue; catalog no. M5655, Sigma-Aldrich). Afterwards, media was removed and converted dye solubilized with 100 μL acidic isopropanol (0.06 N) and absorbance measured at a wavelength of 570 nm with background subtraction at 650 nm. Arbitrary units of cell viability of a given example were determined relative to equal volume of DMSO (vehicle) for each concentration used.
SMILES,LDLR Fold Change 10 μM [2],LDLR Fold Change 10 nM [2],other results
"C[C@@H]1C[C@@H]([C@H](O)CC2CC(=O)NC(=O)C2)C(=O)[C@@H](C)C1 [CHX, Cycloheximide]",,,"effect of combined inhibitor on increase of LDLR by Compound 2 ([1]; HepG2 cells, 10 μM Compound 2 in combination with inhibitor (U0126 25 μM, CHX 20 μg/ml), FIG. 19): block increase of LDLR by Compound 2"
"O=C(NO)c1ncc(CNc2ccc(F)cc2)c(CO)c1O [Compound 1, 5-[(4-fluoro-phenylamino)-methyl]-3-hydroxy-4-hydroxymethyl-pyridine-2-carboxylic acid hydroxyamide]",6.9,,CC50 [3]: 120 µM
"O=C(NO)c1ncc(COc2ccc(F)c(Cl)c2)c(CO)c1O [Compound 3, 5-(3-chloro-4-fluoro-phenoxymethyl)-3-hydroxy-4-hydroxymethyl-pyridine-2-carboxylic acid hydroxyamide]",5.6,,CC50 [3]: 11 µM
"O=C(NCc1ccc(F)c(Cl)c1)c1cnc(C(=O)NO)c(O)c1CO [Compound 4, N^5-(3-chloro-4-fluorobenzyl)-N^2,3-dihydroxy-4-(hydroxymethyl)pyridine-2,5-dicarboxamide]",2.7,,
"CC1(C)OCc2c(CNCc3ccc(F)c(Cl)c3)cnc(C(=O)NO)c2O1.Cl [Compound 5, 5-{(1-3-chloro-4-fluoro-phenyl)aminomethyl} 2,2-dimethyl-4H-[1,3]dioxino[4,5-c]pyridine-8-carboxylic acid hydroxamide]",2.4,,
"O=C(NO)c1ncc(CCc2ccc(F)cc2)c(CO)c1O [Compound 6, 5-[2-(4-fluoro-phenyl)-ethyl]-3-hydroxy-4-hydroxymethyl-pyridine-2-carboxylic acid hydroxamide]",2.3,1.5,CC50 [3]: 39 µM
"COc1ccc(COCc2cnc(C(=O)O)c(O)c2C)cc1 [Compound 7, 5-(4-methoxy-benzyloxymethyl)-3-hydroxy-4-methyl-pyridine-2-carboxylic acid]",1.9 and 2-3,1.7,
"COC(=O)c1ncc(COCc2ccc(OC)cc2)c(C)c1O [Compound 8, 5-(4-methoxy-benzyloxymethyl)-3-hydroxy-4-methyl-pyridine-2-carboxylic acid methyl ester]",1.7,1.7,
"COc1ccc(COCc2cnc(C)c3c2COC(C)(C)O3)cc1 [Compound 9, 5-((4-methoxybenzyloxy)methyl)-2,2,8-trimethyl-4H-[1,3]dioxino[4,5-c]pyridine]",1.4,,
"COC(=O)c1ncc(COCc2ccc(OC)cc2)c2c1OC(C)(C)OC2 [Compound 10, methyl 5-((4-methoxybenzyloxy)methyl)-2,2-dimethyl-4H-[1,3] dioxino[4,5-c]pyridine-8-carboxylate]",1.2,1.7,
"COc1c(C(=O)NO)ncc(C(=O)NCc2ccc(F)cc2)c1CO [Compound 19, 4-hydroxymethyl-3-methoxy-pyridine-2,5-dicarboxylic acid 5-(4-fluoro-benzylamide) 2-hydroxyamide]",,,CC50 [3]: 6.6 µM
"COC(=O)c1ncc(C(=O)NCc2ccc(F)c(Cl)c2)c2c1OC(C)(C)OC2 [Compound 25, 2,2-dimethyl-4H-[1,3]dioxino[4,5-c]pyridine-5,8-dicarboxylic acid 5-(3-chloro-4-fluoro-benzylamide)-8-(methyl ester)]",1.9,,
"Cc1ncc(COc2ccc(F)cc2)c2c1OC(C)(C)OC2 [Compound 26, 5-((4-fluorophenoxy)methyl)-2,2-dimethyl-4H-[1,3]dioxino[4,5-c]picoline]",1.5,1,
"Cc1ncc(COc2ccc(F)cc2)c(CO)c1O [Compound 27, 5-((4-fluorophenoxy)methyl)-3-hydroxy-4-(hydroxymethyl)picoline]",1.2,0.6,
"N#CC(=C(/N)Sc1ccccc1N)/C(C#N)=C(\N)Sc1ccccc1N [Compound U0126, U0126]",,,effect of combined inhibitor on increase of LDLR by Compound 2 [1]: block increase of LDLR by Compound 2
